In brackets after ≈: the same amount, converted by molar mass. Several values for one entry are separate records, joined by “and”; a condition that tells them apart may be missing. Equal entries are not always repeated.
Tests used:
Test in all cases: ≥ marks a high value that may be exact or a test limit, other limits are often not marked, values filed in µg/mL are converted to µM
[1] = test system: Bacillus subtilis ATCC 6633
[2] = test system: Staphylococcus aureus ATCC 9144
[3] = test system: Escherichia coli DH5alpha
[4] = test system: Escherichia coli ATCC 10536
Escherichia coli NDM-1 = test system: Escherichia coli NDM-1
Citrobacter freundii = test system: Citrobacter freundii
[5] = test system: Staphylococcus aureus ATCC 1717
Enterococcus faecalis = test system: Enterococcus faecalis
Klebsiella oxytoca = test system: Klebsiella oxytoca
Enterobacter cloacae = test system: Enterobacter cloacae
Morganella morganii = test system: Morganella morganii
[6] = test system: Bacillus subtilis ATCC 23857
[7] = test system: Escherichia coli ATCC 25922
[8] = test system: Klebsiella pneumoniae NDM-1
Escherichia coli BL21 = test system: Escherichia coli BL21
Bacillus subtilis 168 = test system: Bacillus subtilis 168
Staphylococcus aureus = test system: Staphylococcus aureus
Escherichia coli ESBL = test system: Escherichia coli ESBL
[9] = test system: Staphylococcus aureus M838-17
[10] = test system: Staphylococcus aureus USA 300
[11] = test system: Pseudomonas aeruginosa E411-17
[12] = test system: Enterococcus faecium V286-17
[13] = test system: Pseudomonas aeruginosa PAO1
[14] = test system: Klebsiella pneumoniae ATCC 13883
Escherichia coli E416-7 = test system: Escherichia coli E416-7
[15] = test system: Staphylococcus aureus JE2
[16] = test system: Klebsiella pneumoniae E406-17
[17] = test system: Staphylococcus epidermidis
Candida albicans = test system: Candida albicans
[18] = test system: Corynebacterium glutamicum
Pseudomonas aeruginosa = test system: Pseudomonas aeruginosa
Vibrio alginolyticus = test system: Vibrio alginolyticus
Escherichia coli = test system: Escherichia coli
Shigella flexneri = test system: Shigella flexneri
Cryptococcus neoformans = test system: Cryptococcus neoformans
Aeromonas hydrophila = test system: Aeromonas hydrophila
Vibrio parahaemolyticus = test system: Vibrio parahaemolyticus
Bacillus cereus = test system: Bacillus cereus
Bacillus subtilis = test system: Bacillus subtilis
[19] = test system: Bacillus amyloliquefaciens ATCC 23842
[20] = test system: Bacillus licheniformis ATCC 14580
[21] = test system: Staphylococcus aureus ATCC 29213
[22] = test system: Enterococcus faecalis 1F-1
[23] = test system: Proteus mirabilis ATCC 35659
[24] = test system: Bacillus cereus ATCC 14579
[25] = test system: Salmonella enterica ATCC H9812
[26] = test system: Bacillus subtilis ATCC 6051
[27] = test system: Enterococcus faecium 5F-10

With `CC[C@H](C)[C@H](NC(=O)CN)C(=O)NCC(=O)N[C@@H](C)C(=O)N[C@H](C(=O)N[C@@H](CC(C)C)C(=O)N[C@@H](CCCCN)C(=O)N[C@H](C(=O)N[C@@H](C)C(=O)N[C@H](C(=O)N[C@H](C(=O)NCC(=O)N[C@@H](C)C(=O)N1CCC[C@H]1C(=O)N[C@@H](C)C(=O)N[C@@H](CC(C)C)C(=O)N[C@H](C(=O)N[C@@H](CO)C(=O)N[C@@H](Cc1c[nH]c2ccccc12)C(=O)N[C@H](C(=O)N[C@@H](CCCCN)C(=O)N[C@@H](CCCN=C(N)N)C(=O)N[C@@H](CCCCN)C(=O)N[C@@H](CCCN=C(N)N)C(=O)N[C@@H](CCC(N)=O)C(=O)N[C@@H](CCC(N)=O)C(N)=O)[C@@H](C)CC)[C@@H](C)CC)[C@@H](C)O)[C@@H](C)O)C(C)C)C(C)C` [GIGAVLKVATTGAPALISWIKRKRQQ] the MIC [1] was 20 µM (≈ 55.2 µg/mL), the MIC [2] was 20 µM (≈ 55.2 µg/mL) and the MIC [3] was 4.3 µM (≈ 11.9 µg/mL). The MIC [4] was 4.5 µM (≈ 12.4 µg/mL).
`CC[C@H](C)[C@H](NC(=O)CNC(=O)[C@@H](NC(=O)[C@H](CCCCN)NC(=O)[C@H](C)NC(=O)[C@@H](NC(=O)[C@@H](NC(=O)CN)[C@@H](C)CC)[C@@H](C)CC)[C@@H](C)CC)C(=O)N[C@@H](CCCCN)C(=O)N[C@H](C(=O)N[C@@H](CCCCN)C(=O)N[C@@H](CCCCN)C(N)=O)[C@@H](C)CC` [GIIAKIGIKIKK] was tested, and the MIC (Escherichia coli NDM-1) was 16 µM (≈ 20.5 µg/mL), the MIC (Citrobacter freundii) was 22.6 µM (≈ 29 µg/mL) and the MIC [5] was at least 128 µM. The MIC (Enterococcus faecalis) was at least 128 µM, the MIC (Klebsiella oxytoca) was at least 64 µM and the MIC (Enterobacter cloacae) was 22.6 µM (≈ 29 µg/mL). For the same compound, the MIC (Morganella morganii) was at least 128 µM, the MIC [6] was 16 µM (≈ 20.5 µg/mL) and the MIC [7] was 32 µM (≈ 41 µg/mL). For the same compound, the MIC [8] was 22.6 µM (≈ 29 µg/mL).
Compound `CC[C@H](C)[C@H](NC(=O)CN)C(=O)N[C@H](C(=O)N[C@@H](CCCCN)C(=O)N[C@@H](CCCCN)C(=O)N[C@H](C(=O)N[C@H](C(=O)N[C@@H](CCCCN)C(=O)N[C@@H](CCCCN)C(=O)N[C@H](C(=O)N[C@H](C(=O)N[C@@H](CCCCN)C(=O)N[C@@H](CCCCN)C(N)=O)[C@@H](C)CC)[C@@H](C)CC)[C@@H](C)CC)[C@@H](C)CC)[C@@H](C)CC` [GIIKKIIKKIIKK] has an MIC (Escherichia coli BL21) of 20 µM (≈ 30.4 µg/mL), an MIC (Bacillus subtilis 168) of 2.5 µM (≈ 3.81 µg/mL) and an MIC (Staphylococcus aureus) of 20 µM (≈ 30.4 µg/mL). The MIC (Escherichia coli ESBL) was 20 µM (≈ 30.4 µg/mL).
`CC(C)C[C@H](NC(=O)[C@H](CC(C)C)NC(=O)[C@H](CCCCN)NC(=O)[C@H](CC(C)C)NC(=O)CNC(=O)[C@H](CC(C)C)NC(=O)[C@H](CO)NC(=O)[C@H](CC(C)C)NC(=O)[C@H](CC(C)C)NC(=O)[C@H](CC(C)C)NC(=O)[C@H](CCCCN)NC(=O)[C@H](CC(C)C)NC(=O)CN)C(N)=O` [GLKLLLSLGLKLL] was tested, and the MIC [9] was 2.25 µM (≈ 3.1 µg/mL), the MIC [10] was 1.6 µM and 3.1 µM and 4.4 µM and the MIC [11] was at least 50 µM. It also gave an MIC [12] of 4.4 µM (≈ 6.07 µg/mL), an MIC [13] of over 25 µM and an MIC [14] of 25 µM (≈ 34.5 µg/mL). For the same compound, the MIC (Escherichia coli E416-7) was at least 50 µM, the MIC [15] was 1.13 µM (≈ 1.56 µg/mL) and the MIC [7] was over 25 µM. It also gave an MIC [16] of at least 50 µM.
With `CC[C@H](C)[C@H](NC(=O)[C@H](CC(C)C)NC(=O)[C@H](CCC(=O)O)NC(=O)[C@@H]1CCCN1C(=O)[C@H](CC(C)C)NC(=O)[C@H](Cc1cnc[nH]1)NC(=O)[C@@H](NC(=O)[C@H](CCCCN)NC(=O)[C@@H](NC(=O)[C@H](Cc1ccccc1)NC(=O)[C@H](CCCCN)NC(=O)[C@H](CCCN=C(N)N)NC(=O)[C@H](CS)NC(=O)[C@H](CC(C)C)NC(=O)[C@H](CO)NC(=O)[C@H](CCCCN)NC(=O)[C@H](CC(C)C)NC(=O)[C@H](CC(C)C)NC(=O)CN)C(C)C)C(C)C)C(=O)N[C@@H](CCC(=O)O)C(=O)N[C@@H](CCC(=O)O)C(=O)N[C@@H](CC(C)C)C(=O)N[C@H](C(=O)N[C@H](C(=O)N[C@H](C(=O)N[C@@H](CC(=O)O)C(=O)O)[C@@H](C)O)[C@@H](C)O)[C@@H](C)O` [GLLKSLCRKFVKVHLPELIEELTTTD] the MIC [17] was at least 50 µM, the MIC (Candida albicans) was over 50 µM and the MIC [18] was 8.84 µM (≈ 26.4 µg/mL). For the same compound, the MIC (Pseudomonas aeruginosa) was over 50 µM, the MIC (Staphylococcus aureus) was over 50 µM and the MIC (Vibrio alginolyticus) was at least 50 µM. It also gave an MIC (Escherichia coli) of 35.4 µM (≈ 105 µg/mL), an MIC (Shigella flexneri) of at least 50 µM and an MIC (Cryptococcus neoformans) of at least 50 µM. The MIC (Aeromonas hydrophila) was at least 50 µM, the MIC (Vibrio parahaemolyticus) was at least 50 µM and the MIC (Bacillus cereus) was at least 50 µM. For the same compound, the MIC (Bacillus subtilis) was at least 50 µM.
`CC(C)C[C@H](NC(=O)[C@@H](N)CC(C)C)C(=O)N[C@@H](CO)C(=O)N[C@@H](CCCN=C(N)N)C(=O)N[C@H](C(=O)N[C@@H](CC(=O)O)C(=O)O)C(C)C` [LLSRVD] was tested, and the MIC [19] was at least 182 µM, the MIC [20] was at least 182 µM and the MIC [21] was over 182 µM. The MIC [13] was over 182 µM, the MIC [22] was at least 182 µM and the MIC [23] was at least 182 µM. It also gave an MIC [24] of at least 182 µM, an MIC [25] of at least 182 µM and an MIC [7] of 91.2 µM (≈ 64 µg/mL). For the same compound, the MIC [26] was at least 182 µM and the MIC [27] was at least 182 µM.
